Results published in ChEMBL document CHEMBL4196012 (Eur J Med Chem, 2018).

Experiments:
[1] = Partition coefficient, log P of the compound; format: physicochemical; conditions: octanol/water
Staphylococcus aureus [2] = assay: Potency index, ratio of ciprofloxacin MIC to compound MIC for antibacterial activity against vancomycin-insensitive Staphylococcus aureus; format: functional
[3] = test system: Yersinia pseudotuberculosis; assay: Antibacterial activity against Yersinia pseudotuberculosis ATCC 911 after 18 to 24 hrs by double microdilution method; format: functional
Enterococcus faecalis [4] = assay: Antibacterial activity against Enterococcus faecalis ATCC 29212 after 18 to 24 hrs by double microdilution method; format: functional
Staphylococcus aureus [5] = assay: Antibacterial activity against Staphylococcus aureus ATCC 25923 after 18 to 24 hrs by double microdilution method; format: functional
Bacillus cereus = assay: Antibacterial activity against Bacillus cereus 709 Roma after 18 to 24 hrs by double microdilution method; format: functional
[6] = test system: Mycolicibacterium smegmatis; assay: Antibacterial activity against Mycobacterium smegmatis ATCC 607 after 48 to 72 hrs by double microdilution method; format: functional
Escherichia coli [7] = assay: Antibacterial activity against Escherichia coli ATCC 35218 after 18 to 24 hrs by double microdilution method; format: functional
Pseudomonas aeruginosa [8] = assay: Antibacterial activity against Pseudomonas aeruginosa ATCC 10145 after 18 to 24 hrs by double microdilution method; format: functional
Escherichia coli [9] = assay: Antibacterial activity against Escherichia coli ATCC […] by CLSI agar dilution method; format: functional
[10] = test system: Staphylococcus epidermidis; assay: Antibacterial activity against Staphylococcus epidermidis ATCC 12228 by CLSI agar dilution method; format: functional
[11] = test system: Staphylococcus epidermidis; assay: Antibacterial activity against methicillin-sensitive Staphylococcus epidermidis by CLSI agar dilution method; format: functional
Staphylococcus aureus [12] = assay: Antibacterial activity against Staphylococcus aureus ATCC 29213 by CLSI agar dilution method; format: functional
Staphylococcus aureus [13] = assay: Antibacterial activity against methicillin-sensitive Staphylococcus aureus by CLSI agar dilution method; format: functional
Klebsiella pneumoniae [14] = assay: Antibacterial activity against Klebsiella pneumoniae ATCC […] by CLSI agar dilution method; format: functional
Escherichia coli [15] = assay: Antibacterial activity against Escherichia coli ATCC 8739 by agar dilution method; format: functional
Klebsiella pneumoniae [16] = assay: Antibacterial activity against Klebsiella pneumoniae ATCC 10031 by agar dilution method; format: functional
Pseudomonas aeruginosa [17] = assay: Antibacterial activity against Pseudomonas aeruginosa ATCC 9027 by agar dilution method; format: functional
Bacillus subtilis [18] = assay: Antibacterial activity against Bacillus subtilis PTCC 1023 by agar dilution method; format: functional
Staphylococcus aureus [19] = assay: Antibacterial activity against Staphylococcus aureus ATCC 6538P by agar dilution method; format: functional
[20] = test system: Staphylococcus epidermidis; assay: Antibacterial activity against Staphylococcus epidermidis ATCC 12228 by agar dilution method; format: functional
Escherichia coli [21] = assay: Antibacterial activity against Escherichia coli after 24 hrs by agar streak dilution method; format: functional
Pseudomonas aeruginosa [22] = assay: Potency index, ratio of ciprofloxacin MIC to compound MIC for antibacterial activity against Pseudomonas aeruginosa; format: functional
Escherichia coli [23] = assay: Potency index, ratio of ciprofloxacin MIC to compound MIC for antibacterial activity against Escherichia coli; format: functional
Pseudomonas aeruginosa [24] = assay: Antibacterial activity against Pseudomonas aeruginosa after 24 hrs by agar streak dilution method; format: functional
Escherichia coli [25] = assay: In vivo antibacterial activity against Escherichia coli NCTC 10419 infected in po dosed mouse administered at 1 and 4 hrs post infection; format: functional, organism-based
Staphylococcus aureus [26] = assay: Antibacterial activity against Staphylococcus aureus ATCC 29213 after 16 to 20 hrs by NCCLS microdilution method; format: functional
Staphylococcus aureus [27] = assay: Antibacterial activity against quinolone-resistant Staphylococcus aureus after 16 to 20 hrs by NCCLS microdilution method; format: functional
Staphylococcus aureus [28] = assay: Antibacterial activity against linezolid-resistant Staphylococcus aureus after 16 to 20 hrs by NCCLS microdilution method; format: functional
Enterococcus faecalis [29] = assay: Antibacterial activity against Enterococcus faecalis ATCC 29212 after 16 to 20 hrs by NCCLS microdilution method; format: functional
Enterococcus faecalis [30] = assay: Antibacterial activity against linezolid-resistant Enterococcus faecalis after 16 to 20 hrs by NCCLS microdilution method; format: functional
Enterococcus faecium = assay: Antibacterial activity against vancomycin and quinolone-resistant Enterococcus faecium after 16 to 20 hrs by NCCLS microdilution method; format: functional
Streptococcus pneumoniae [31] = assay: Antibacterial activity against Streptococcus pneumoniae ATCC 49619 after 16 to 20 hrs by NCCLS microdilution method; format: functional
Streptococcus pneumoniae [32] = assay: Antibacterial activity against quinolone-resistant Streptococcus pneumoniae after 16 to 20 hrs by NCCLS microdilution method; format: functional
Haemophilus influenzae = assay: Antibacterial activity against Haemophilus influenzae 11 after 16 to 20 hrs by NCCLS microdilution method; format: functional
Moraxella catarrhalis = assay: Antibacterial activity against Moraxella catarrhalis ATCC 8176 after 16 to 20 hrs by NCCLS microdilution method; format: functional
Escherichia coli [33] = assay: Antibacterial activity against Escherichia coli ATCC 25922 after 16 to 20 hrs by NCCLS microdilution method; format: functional
Bacillus subtilis [34] = assay: Antibacterial activity against Bacillus subtilis NCDC 71 after overnight incubation by single disc method; format: functional
Escherichia coli [35] = assay: Antibacterial activity against Escherichia coli NCDC 134 after overnight incubation by single disc method; format: functional
Pseudomonas aeruginosa [36] = assay: Antibacterial activity against Pseudomonas aeruginosa NCDC105 after overnight incubation by single disc method; format: functional
Paenibacillus polymyxa = assay: Antibacterial activity against Paenibacillus polymyxa NCDC 64 after overnight incubation by single disc method; format: functional
Staphylococcus aureus [37] = assay: Antibacterial activity against Staphylococcus aureus NCDC 110 after overnight incubation by single disc method; format: functional

CCCOC(=O)c1cn(C2CC2)c2cc(N3CCNCC3)c(F)cc2c1=O
0.437: logP [1]

CCn1cc(C(=O)O)c(=O)c2cnc(N3CCN(Cc4ccc(CN5CCN(c6cc7c(cc6F)c(=O)c(C(=O)O)cn7C6CC6)CC5)cc4)CC3)nc21
>4: Ratio (Staphylococcus aureus [2])

COC(=O)c1cn(C2CC2)c2cc(N3CCNCC3)c(F)cc2c1=O
-0.441: logP [1]

CCn1c(CNc2ccc(N3CCN(c4ccc(F)cc4)CC3)c(F)c2)nn(CN2CCN(c3cc4c(cc3F)c(=O)c(C(=O)O)cn4C3CC3)CC2)c1=S
< 0.24 µg/mL: MIC [3] | MIC (Enterococcus faecalis [4]) | MIC (Staphylococcus aureus [5]) | MIC (Bacillus cereus) | MIC [6] | MIC (Escherichia coli [7]) | MIC (Pseudomonas aeruginosa [8])

O=C(O)c1cn(C2CC2)c2cc(N3CCN(CC(O)Cn4cc([N+](=O)[O-])nc4Cl)CC3)c(F)cc2c1=O (stereo unspecified)
2 to 32 µg/mL: MIC (Escherichia coli [9]) | MIC [10] | MIC [11] | MIC (Staphylococcus aureus [12]) | MIC (Staphylococcus aureus [13]) | MIC (Klebsiella pneumoniae [14])

Cn1c([N+](=O)[O-])cnc1-c1nnc(N2CCN(c3cc4c(cc3F)c(=O)c(C(=O)O)cn4C3CC3)CC2)s1
2 to 64 µg/mL: MIC (Escherichia coli [15]) | MIC (Klebsiella pneumoniae [16]) | MIC (Pseudomonas aeruginosa [17])
0.008 to 0.015 µg/mL: MIC (Bacillus subtilis [18]) | MIC (Staphylococcus aureus [19]) | MIC [20]

CCOc1ccc2nc(C3C(=O)CSC3N3CCN(c4cc5c(cc4F)c(=O)c(C(=O)O)cn5C4CC4)CC3)sc2c1 (stereo unspecified)
3: Ratio (Pseudomonas aeruginosa [22]) | Ratio (Escherichia coli [23])
2 µg/mL: MIC (Escherichia coli [21]) | MIC (Pseudomonas aeruginosa [24])

COc1ccccc1N1CCN(Cc2nn(CN3CCN(c4cc5c(cc4F)c(=O)c(C(=O)O)cn5C4CC4)CC3)c(=S)n2-c2ccccc2)CC1
< 0.24 µg/mL: MIC [3] | MIC (Enterococcus faecalis [4]) | MIC (Staphylococcus aureus [5]) | MIC (Bacillus cereus) | MIC [6] | MIC (Escherichia coli [7]) | MIC (Pseudomonas aeruginosa [8])

CCOC(=O)c1cn(C2CC2)c2cc(N3CCNCC3)c(F)cc2c1=O [CIPROFLOXACIN ETHYL ESTER]
-0.065: logP [1]

COc1cc(Cc2cnc(/N=C3\C(=O)N(CN4CCN(c5cc6c(cc5F)c(=O)c(C(=O)O)cn6C5CC5)CC4)c4ccc(C)cc43)nc2N)cc(OC)c1OC
0.62 mg/kg: EC50 (Escherichia coli [25])

CC(=O)NC[C@H]1CN(c2ccc(N3CCN(c4cc5c(cc4F)c(=O)c(C(=O)O)cn5C4CC4)CC3)c(F)c2)C(=O)O1
0.25 to 0.5 µg/mL: MIC (Staphylococcus aureus [27]) | MIC (Enterococcus faecium) | MIC (Streptococcus pneumoniae [32])
0.125 to 4 µg/mL: MIC (Staphylococcus aureus [26]) | MIC (Staphylococcus aureus [28]) | MIC (Enterococcus faecalis [29]) | MIC (Enterococcus faecalis [30]) | MIC (Streptococcus pneumoniae [31]) | MIC (Haemophilus influenzae) | MIC (Moraxella catarrhalis) | MIC (Escherichia coli [33])

O=C(CN1CCN(c2cc3c(cc2F)c(=O)c(C(=O)O)cn3C2CC2)CC1)Nc1nc2c(Cl)ccc(Cl)c2s1
3 to 125 µg/mL: MIC (Bacillus subtilis [34]) | MIC (Escherichia coli [35]) | MIC (Pseudomonas aeruginosa [36]) | MIC (Paenibacillus polymyxa) | MIC (Staphylococcus aureus [37])
